The numbers were not newly measured in US8137734B2, “Preparation of controlled release skeletal muscle relaxant dosage forms” (Aptalis Pharmatech, Inc., priority 2008, dated 2012), which cites them from elsewhere.

For `CN(C)CCC=C1c2ccccc2C=Cc2ccccc21` [Cyclobenzaprine], for the setting “after oral administration”, the absorption entry was “well absorbed”. In addition, the half-life entry (elimination) is given as “one to three”.
